Measured values as given in patent publication US8952024B2, “Herbicidal pyrimidone derivatives” (E I du Pont de Nemours and Company, priority 2009, dated 2015).

Key:
Assay type in all cases: in vivo
[1] = tested on: barnyardgrass (Echinochloa crus-galli); assay: Test A pre-/postemergence plant response
Excerpt: (§1) Seeds of barnyardgrass (Echinochloa crus-galli), large crabgrass (Digitaria sanguinalis), giant foxtail (Setaria faberii), morningglory (Ipomoea spp.), pigweed (Amaranthus retroflexus), velvetleaf (Abutilon theophrasti), wheat (Triticum aestivum) and corn (Zea mays) were planted into a blend of loam soil and sand and treated preemergence with a directed soil spray using test chemicals formulated in a non-phytotoxic solvent mixture which included a surfactant. At the same time these species were also treated with postemergence applications of test compounds formulated in the same manner.
(§2) Plants ranged in height from two to ten cm and were in the one- to two-leaf stage for the postemergence treatment. Treated plants and untreated controls were maintained in a greenhouse for approximately ten days, after which time all treated plants were compared to untreated controls and visually evaluated for injury. Plant response ratings, summarized in Table A, are based on a 0 to 100 scale where 0 is no effect and 100 is complete control. A dash (-) response means no test result.

corn (Zea mays) = assay: Test A pre-/postemergence plant response
Excerpt: as §1, §2

[2] = tested on: giant foxtail (Setaria faberii); assay: Test A pre-/postemergence plant response
Excerpt: as §1, §2

[3] = tested on: large crabgrass (Digitaria sanguinalis); assay: Test A pre-/postemergence plant response
Excerpt: as §1, §2

[4] = tested on: morningglory (Ipomoea spp.); assay: Test A pre-/postemergence plant response
Excerpt: as §1, §2

[5] = tested on: pigweed (Amaranthus retroflexus); assay: Test A pre-/postemergence plant response
Excerpt: as §1, §2

[6] = tested on: velvetleaf (Abutilon theophrasti); assay: Test A pre-/postemergence plant response
Excerpt: as §1, §2

[7] = tested on: wheat (Triticum aestivum); assay: Test A pre-/postemergence plant response
Excerpt: as §1, §2

[8] = tested on: barnyardgrass (Echinochloa crus-galli); assay: Test B flooded paddy test; details: for Plant response rating, Flood, Barnyardgrass: 250 g ai/ha, flooded paddy test, visual rating on 0 to 100 scale (0 no effect, 100 complete control) after 13 to 15 days; for Plant response rating, Barnyardgrass: Flood (flooded paddy test), 13 to 15 days; for Barnyardgrass plant response rating: Flood, 31 g ai/ha, scale 0 to 100 (0 no effect, 100 complete control)
Summary of the method: (§3)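 Ratings are visual, 0–100 (100 = complete control), taken versus untreated controls 13 to 15 days after treatment in the greenhouse. Compound went straight into paddy water held 3 cm above soil, applied to 2-leaf-stage plants of four species.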

[9] = tested on: ducksalad (Heteranthera limosa); assay: Test B flooded paddy test; details: for Plant response rating, Flood, Ducksalad: 250 g ai/ha, flooded paddy test, visual rating on 0 to 100 scale (0 no effect, 100 complete control) after 13 to 15 days; for Plant response rating, Ducksalad: Flood (flooded paddy test), 13 to 15 days; for Ducksalad plant response rating: Flood, 31 g ai/ha, scale 0 to 100 (0 no effect, 100 complete control)
Summary of the method: as §3

rice (Oryza sativa) = assay: Test B flooded paddy test; details: for Plant response rating, Flood, Rice: 250 g ai/ha, flooded paddy test, visual rating on 0 to 100 scale (0 no effect, 100 complete control) after 13 to 15 days; for Plant response rating, Rice: Flood (flooded paddy test), 13 to 15 days; for Rice plant response rating: Flood, 31 g ai/ha, scale 0 to 100 (0 no effect, 100 complete control)
Summary of the method: as §3

[10] = tested on: umbrella sedge (Cyperus difformis); assay: Test B flooded paddy test; details: for Plant response rating, Flood, Sedge, Umbrella: 250 g ai/ha, flooded paddy test, visual rating on 0 to 100 scale (0 no effect, 100 complete control) after 13 to 15 days; for Plant response rating, Sedge, Umbrella: Flood (flooded paddy test), 13 to 15 days; for Sedge, Umbrella plant response rating: Flood, 31 g ai/ha, scale 0 to 100 (0 no effect, 100 complete control)
Summary of the method: as §3

[11] = Postemergence, 125 g ai/ha, 0 to 100 scale where 0 is no effect and 100 is complete control
[12] = Postemergence, 500 g ai/ha, 0 to 100 scale, 0 = no effect, 100 = complete control, approx. ten days
[13] = Preemergence, 125 g ai/ha, 0 to 100 scale, 0 = no effect, 100 = complete control
[14] = Preemergence, 500 g ai/ha, visual injury, 0 to 100 scale (0 no effect, 100 complete control), approx. ten days
[15] = 62 g ai/ha, scale of 0 to 100 where 0 is no effect and 100 is complete control
[16] = 125 g ai/ha, scale 0 to 100, 0 is no effect, 100 is complete control

CCn1c(-c2cccc(F)c2)ncc(C(=O)C2=C(O)CCCC2=O)c1=O [Compound 124]
60: Plant response rating, Barnyardgrass [1, 14] | Plant response rating, Crabgrass, Large [3, 13] | Plant response rating, Morningglory [4, 13]
0: Plant response rating, Corn (corn (Zea mays); [11]) | Plant response rating, Corn (corn (Zea mays); [13]) | Plant response rating, Corn (corn (Zea mays); [14]) | Plant response rating, Wheat [7, 11] | Plant response rating, Wheat [7, 12] | Plant response rating, Wheat [7, 13] | Plant response rating, Wheat [7, 14] | Plant response rating, Barnyardgrass [8, 15] | Plant response rating, Barnyardgrass [8, 16] | Barnyardgrass plant response rating [8] | Plant response rating, Flood, Ducksalad [9] | Plant response rating, Ducksalad [9, 15] | Plant response rating, Ducksalad [9, 16] | Ducksalad plant response rating [9] | Rice plant response rating (rice (Oryza sativa)) | Plant response rating, Sedge, Umbrella [10, 15] | Sedge, Umbrella plant response rating [10]
20: Plant response rating, Barnyardgrass [1, 13] | Plant response rating, Corn (corn (Zea mays); [12]) | Plant response rating, Flood, Rice (rice (Oryza sativa)) | Plant response rating, Rice (rice (Oryza sativa); [16]) | Plant response rating, Sedge, Umbrella [10, 16]
80: Plant response rating, Morningglory [4, 14]
100: Plant response rating, Morningglory [4, 11] | Plant response rating, Morningglory [4, 12] | Plant response rating, Pigweed [5, 12] | Plant response rating, Pigweed [5, 13] | Plant response rating, Pigweed [5, 14] | Plant response rating, Velvetleaf [6, 11] | Plant response rating, Velvetleaf [6, 12] | Plant response rating, Velvetleaf [6, 14]
30: Plant response rating, Flood, Barnyardgrass [8]
50: Plant response rating, Foxtail, Giant [2, 11]
40: Plant response rating, Barnyardgrass [1, 11] | Plant response rating, Foxtail, Giant [2, 14] | Plant response rating, Flood, Sedge, Umbrella [10]
70: Plant response rating, Foxtail, Giant [2, 12] | Plant response rating, Crabgrass, Large [3, 11] | Plant response rating, Velvetleaf [6, 13]
90: Plant response rating, Barnyardgrass [1, 12] | Plant response rating, Crabgrass, Large [3, 12] | Plant response rating, Crabgrass, Large [3, 14] | Plant response rating, Pigweed [5, 11]
10: Plant response rating, Foxtail, Giant [2, 13]
15: Plant response rating, Rice (rice (Oryza sativa); [15])

Cc1cc(-n2c(-c3cccc(Br)c3)ncc(C(=O)C3=C(O)CCCC3=O)c2=O)ccc1F [Compound 132]
20: Plant response rating, Corn (corn (Zea mays); [14]) | Plant response rating, Foxtail, Giant [2, 13] | Plant response rating, Crabgrass, Large [3, 11]
10: Plant response rating, Barnyardgrass [1, 11] | Plant response rating, Barnyardgrass [1, 13] | Plant response rating, Pigweed [5, 13] | Plant response rating, Wheat [7, 14]
70: Plant response rating, Foxtail, Giant [2, 12] | Plant response rating, Crabgrass, Large [3, 12]
30: Plant response rating, Morningglory [4, 14] | Plant response rating, Wheat [7, 12] | Plant response rating, Flood, Barnyardgrass [8]
40: Plant response rating, Corn (corn (Zea mays); [12])
90: Plant response rating, Barnyardgrass [1, 12] | Plant response rating, Foxtail, Giant [2, 14] | Plant response rating, Morningglory [4, 11] | Plant response rating, Morningglory [4, 12] | Plant response rating, Pigweed [5, 12]
100: Plant response rating, Barnyardgrass [1, 14] | Plant response rating, Crabgrass, Large [3, 14] | Plant response rating, Velvetleaf [6, 11] | Plant response rating, Velvetleaf [6, 12] | Plant response rating, Flood, Ducksalad [9] | Plant response rating, Flood, Sedge, Umbrella [10]
0: Plant response rating, Corn (corn (Zea mays); [11]) | Plant response rating, Corn (corn (Zea mays); [13]) | Plant response rating, Foxtail, Giant [2, 11] | Plant response rating, Morningglory [4, 13] | Plant response rating, Wheat [7, 11] | Plant response rating, Wheat [7, 13] | Plant response rating, Barnyardgrass [8, 15] | Plant response rating, Barnyardgrass [8, 16] | Barnyardgrass plant response rating [8] | Ducksalad plant response rating [9] | Plant response rating, Flood, Rice (rice (Oryza sativa)) | Plant response rating, Rice (rice (Oryza sativa); [15]) | Plant response rating, Rice (rice (Oryza sativa); [16]) | Rice plant response rating (rice (Oryza sativa)) | Plant response rating, Sedge, Umbrella [10, 15] | Sedge, Umbrella plant response rating [10]
60: Plant response rating, Pigweed [5, 11] | Plant response rating, Sedge, Umbrella [10, 16]
50: Plant response rating, Crabgrass, Large [3, 13] | Plant response rating, Velvetleaf [6, 13] | Plant response rating, Ducksalad [9, 15]
80: Plant response rating, Pigweed [5, 14] | Plant response rating, Velvetleaf [6, 14] | Plant response rating, Ducksalad [9, 16]

CCCn1c(-c2ccc(Br)cc2)ncc(C(=O)C2=C(O)CCCC2=O)c1=O [Compound 134]
40: Plant response rating, Foxtail, Giant [2, 11]
0: Plant response rating, Barnyardgrass [1, 13] | Plant response rating, Corn (corn (Zea mays); [11]) | Plant response rating, Corn (corn (Zea mays); [13]) | Plant response rating, Corn (corn (Zea mays); [14]) | Plant response rating, Foxtail, Giant [2, 13] | Plant response rating, Crabgrass, Large [3, 13] | Plant response rating, Morningglory [4, 11] | Plant response rating, Pigweed [5, 13] | Plant response rating, Wheat [7, 11] | Plant response rating, Wheat [7, 12] | Plant response rating, Wheat [7, 13] | Plant response rating, Wheat [7, 14] | Plant response rating, Flood, Barnyardgrass [8] | Plant response rating, Barnyardgrass [8, 15] | Plant response rating, Flood, Ducksalad [9] | Plant response rating, Ducksalad [9, 15] | Plant response rating, Flood, Rice (rice (Oryza sativa)) | Plant response rating, Rice (rice (Oryza sativa); [15]) | Plant response rating, Flood, Sedge, Umbrella [10] | Plant response rating, Sedge, Umbrella [10, 15]
10: Plant response rating, Barnyardgrass [1, 11] | Plant response rating, Barnyardgrass [1, 14]
80: Plant response rating, Crabgrass, Large [3, 12] | Plant response rating, Pigweed [5, 12]
50: Plant response rating, Crabgrass, Large [3, 11]
70: Plant response rating, Foxtail, Giant [2, 12] | Plant response rating, Pigweed [5, 11] | Plant response rating, Velvetleaf [6, 13] | Plant response rating, Velvetleaf [6, 14]
20: Plant response rating, Corn (corn (Zea mays); [12])
60: Plant response rating, Barnyardgrass [1, 12] | Plant response rating, Morningglory [4, 12] | Plant response rating, Pigweed [5, 14]
30: Plant response rating, Foxtail, Giant [2, 14] | Plant response rating, Crabgrass, Large [3, 14] | Plant response rating, Morningglory [4, 14]
100: Plant response rating, Velvetleaf [6, 11] | Plant response rating, Velvetleaf [6, 12]
